From ChEMBL document CHEMBL5723582, “Data for DCP probe T-10430” (2024)

Assays:
[1] = target: Kappa-type opioid receptor (Homo sapiens) (UniProt P41145); assay: RLU of OPRK1 at 1.0 µM in the […] PRESTO-Tango GPCRome screen; settings: Compound concentration 1.0 uM
[2] = target: 2-oxoglutarate receptor 1 (Homo sapiens) (UniProt Q96P68); assay: RLU of OXGR1 at 1.0 µM in the […] PRESTO-Tango GPCRome screen; settings: Compound concentration 1.0 uM
[3] = target: Follicle-stimulating hormone receptor (Homo sapiens) (UniProt P23945); assay: RLU of FSHR at 1.0 µM in the […] PRESTO-Tango GPCRome screen; settings: Compound concentration 1.0 uM
Follicle-stimulating hormone receptor (Homo sapiens), sequence (P23945 whole entry): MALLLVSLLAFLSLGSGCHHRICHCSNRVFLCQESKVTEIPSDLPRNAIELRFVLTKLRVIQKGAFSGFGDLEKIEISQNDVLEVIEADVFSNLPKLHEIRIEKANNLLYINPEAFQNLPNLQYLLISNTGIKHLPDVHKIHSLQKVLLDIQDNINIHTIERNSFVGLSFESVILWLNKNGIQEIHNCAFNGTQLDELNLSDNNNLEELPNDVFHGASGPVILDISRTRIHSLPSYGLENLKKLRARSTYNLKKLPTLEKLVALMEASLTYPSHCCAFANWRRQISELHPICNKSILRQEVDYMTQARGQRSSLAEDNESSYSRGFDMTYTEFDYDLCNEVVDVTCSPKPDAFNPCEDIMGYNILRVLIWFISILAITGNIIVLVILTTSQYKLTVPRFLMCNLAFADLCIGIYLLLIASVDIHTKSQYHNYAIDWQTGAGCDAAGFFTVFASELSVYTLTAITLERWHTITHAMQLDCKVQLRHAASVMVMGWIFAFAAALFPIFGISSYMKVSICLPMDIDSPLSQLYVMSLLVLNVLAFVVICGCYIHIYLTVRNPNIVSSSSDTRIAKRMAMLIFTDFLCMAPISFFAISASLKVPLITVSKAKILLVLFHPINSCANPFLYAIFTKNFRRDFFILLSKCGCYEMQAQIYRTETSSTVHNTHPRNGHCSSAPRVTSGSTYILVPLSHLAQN

[4] = target: Melanin-concentrating hormone receptor 2 (Homo sapiens) (UniProt Q969V1); assay: RLU of MCHR2 at 1.0 µM in the […] PRESTO-Tango GPCRome screen; settings: Compound concentration 1.0 uM
[5] = target: Neuromedin-B receptor (Homo sapiens) (UniProt P28336); assay: RLU of NMBR at 1.0 µM in the […] PRESTO-Tango GPCRome screen; settings: Compound concentration 1.0 uM
[6] = target: Probable G-protein coupled receptor 27 (Homo sapiens) (UniProt Q9NS67); assay: RLU of GPR27 at 1.0 µM in the […] PRESTO-Tango GPCRome screen; settings: Compound concentration 1.0 uM
[7] = target: Lysophosphatidic acid receptor 5 (Homo sapiens) (UniProt Q9H1C0); assay: RLU of LPAR5 at 1.0 µM in the […] PRESTO-Tango GPCRome screen; settings: Compound concentration 1.0 uM
[8] = target: Melatonin receptor type 1A (Homo sapiens) (UniProt P48039); assay: RLU of MTNR1A at 1.0 µM in the […] PRESTO-Tango GPCRome screen; settings: Compound concentration 1.0 uM
Melatonin receptor type 1A (Homo sapiens), sequence (P48039 whole entry): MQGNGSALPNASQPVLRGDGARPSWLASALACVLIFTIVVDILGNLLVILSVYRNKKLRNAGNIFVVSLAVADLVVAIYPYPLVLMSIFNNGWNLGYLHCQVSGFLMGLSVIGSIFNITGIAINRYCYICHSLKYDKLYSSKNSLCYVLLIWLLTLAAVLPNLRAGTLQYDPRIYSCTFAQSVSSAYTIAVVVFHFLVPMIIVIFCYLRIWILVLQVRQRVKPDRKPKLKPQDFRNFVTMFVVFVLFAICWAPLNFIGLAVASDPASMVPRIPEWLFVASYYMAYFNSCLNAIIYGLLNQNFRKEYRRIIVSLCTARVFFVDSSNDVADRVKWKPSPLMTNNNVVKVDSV

[9] = target: Probable G-protein coupled receptor 174 (Homo sapiens) (UniProt Q9BXC1); assay: RLU of GPR174 at 1.0 µM in the […] PRESTO-Tango GPCRome screen; settings: Compound concentration 1.0 uM
[10] = target: Succinate receptor 1 (Homo sapiens) (UniProt Q9BXA5); assay: RLU of SUCNR1 at 1.0 µM in the […] PRESTO-Tango GPCRome screen; settings: Compound concentration 1.0 uM
Succinate receptor 1 (Homo sapiens), sequence (Q9BXA5 whole entry): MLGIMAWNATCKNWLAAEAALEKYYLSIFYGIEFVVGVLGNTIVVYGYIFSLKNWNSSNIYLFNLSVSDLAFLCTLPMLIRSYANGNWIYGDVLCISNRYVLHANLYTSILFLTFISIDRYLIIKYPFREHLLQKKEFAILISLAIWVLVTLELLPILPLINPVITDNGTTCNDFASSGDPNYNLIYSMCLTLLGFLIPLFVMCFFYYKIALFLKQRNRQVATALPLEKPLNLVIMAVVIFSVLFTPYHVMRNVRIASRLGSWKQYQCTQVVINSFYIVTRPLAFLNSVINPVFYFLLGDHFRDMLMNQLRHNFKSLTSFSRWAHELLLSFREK

[11] = target: Calcitonin gene-related peptide type 1 receptor (Homo sapiens) (UniProt Q16602); assay: RLU of CALCRL at 1.0 µM in the […] PRESTO-Tango GPCRome screen; settings: Compound concentration 1.0 uM
[12] = target: P2Y purinoceptor 13 (Homo sapiens) (UniProt Q9BPV8); assay: RLU of P2RY13 at 1.0 µM in the […] PRESTO-Tango GPCRome screen; settings: Compound concentration 1.0 uM
P2Y purinoceptor 13 (Homo sapiens), sequence (Q9BPV8 whole entry): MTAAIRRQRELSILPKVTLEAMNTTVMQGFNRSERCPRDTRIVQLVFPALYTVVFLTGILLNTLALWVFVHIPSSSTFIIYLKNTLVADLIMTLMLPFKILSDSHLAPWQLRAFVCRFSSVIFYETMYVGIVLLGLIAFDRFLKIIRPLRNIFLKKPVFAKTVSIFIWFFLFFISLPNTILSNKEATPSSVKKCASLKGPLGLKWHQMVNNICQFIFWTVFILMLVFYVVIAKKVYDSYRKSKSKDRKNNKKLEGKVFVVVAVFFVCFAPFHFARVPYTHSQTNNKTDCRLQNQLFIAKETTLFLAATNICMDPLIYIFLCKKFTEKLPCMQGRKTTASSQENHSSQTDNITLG

[13] = RLU of HCTR2 at 1.0 µM in the Aequorin PRESTO-Tango GPCRome screen; settings: Homo sapiens; Compound concentration 1.0 uM
[14] = target: Probable G-protein coupled receptor 173 (Homo sapiens) (UniProt Q9NS66); assay: RLU of GPR173 at 1.0 µM in the […] PRESTO-Tango GPCRome screen; settings: Compound concentration 1.0 uM
[15] = target: Prostaglandin D2 receptor 2 (Homo sapiens) (UniProt Q9Y5Y4); assay: RLU of GPR44 at 1.0 µM in the […] PRESTO-Tango GPCRome screen; settings: Compound concentration 1.0 uM
Prostaglandin D2 receptor 2 (Homo sapiens), sequence (Q9Y5Y4 whole entry): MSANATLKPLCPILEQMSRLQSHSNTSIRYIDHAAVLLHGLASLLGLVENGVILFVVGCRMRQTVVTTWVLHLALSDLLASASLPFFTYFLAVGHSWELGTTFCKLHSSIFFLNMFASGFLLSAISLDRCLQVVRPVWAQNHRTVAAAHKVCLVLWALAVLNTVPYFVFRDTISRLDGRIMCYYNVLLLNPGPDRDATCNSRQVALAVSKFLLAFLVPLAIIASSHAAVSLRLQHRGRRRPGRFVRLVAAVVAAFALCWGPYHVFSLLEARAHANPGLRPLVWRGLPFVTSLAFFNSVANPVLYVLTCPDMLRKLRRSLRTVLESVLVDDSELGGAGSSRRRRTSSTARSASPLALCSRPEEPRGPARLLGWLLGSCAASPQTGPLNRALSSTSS

[16] = target: Prokineticin receptor 1 (Homo sapiens) (UniProt Q8TCW9); assay: RLU of PK1 at 1.0 µM in the […] PRESTO-Tango GPCRome screen; settings: Compound concentration 1.0 uM
Prokineticin receptor 1 (Homo sapiens), sequence (Q8TCW9 whole entry): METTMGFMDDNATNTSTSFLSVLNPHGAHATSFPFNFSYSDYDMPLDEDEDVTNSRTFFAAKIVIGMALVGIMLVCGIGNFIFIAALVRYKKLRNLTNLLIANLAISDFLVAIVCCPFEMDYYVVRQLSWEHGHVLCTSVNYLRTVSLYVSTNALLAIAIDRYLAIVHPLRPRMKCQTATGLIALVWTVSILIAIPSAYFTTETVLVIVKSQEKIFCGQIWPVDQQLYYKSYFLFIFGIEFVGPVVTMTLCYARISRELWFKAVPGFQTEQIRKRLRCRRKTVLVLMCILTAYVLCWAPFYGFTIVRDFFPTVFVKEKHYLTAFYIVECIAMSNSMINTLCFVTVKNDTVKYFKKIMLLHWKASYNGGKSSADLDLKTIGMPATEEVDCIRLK

[17] = target: Cannabinoid receptor 1 (Homo sapiens) (UniProt P21554); assay: RLU of CNR1 at 1.0 µM in the […] PRESTO-Tango GPCRome screen; settings: Compound concentration 1.0 uM
[18] = target: D(1A) dopamine receptor (Homo sapiens) (UniProt P21728); assay: RLU of DRD1 at 1.0 µM in the […] PRESTO-Tango GPCRome screen; settings: Compound concentration 1.0 uM
[19] = target: Trace amine-associated receptor 9 (Homo sapiens) (UniProt Q96RI9); assay: RLU of TAAR9 at 1.0 µM in the […] PRESTO-Tango GPCRome screen; settings: Compound concentration 1.0 uM
[20] = target: Alpha-1B adrenergic receptor (Homo sapiens) (UniProt P35368); assay: RLU of ADRA1B at 1.0 µM in the […] PRESTO-Tango GPCRome screen; settings: Compound concentration 1.0 uM
[21] = target: Adrenocorticotropic hormone receptor (Homo sapiens) (UniProt Q01718); assay: RLU of MC2R at 1.0 µM in the […] PRESTO-Tango GPCRome screen; settings: Compound concentration 1.0 uM
[22] = target: G-protein coupled receptor family C group 5 member D (Homo sapiens) (UniProt Q9NZD1); assay: RLU of GPRC5D at 1.0 µM in the […] PRESTO-Tango GPCRome screen; settings: Compound concentration 1.0 uM
[23] = target: Prostacyclin receptor (Homo sapiens) (UniProt P43119); assay: RLU of PTGIR at 1.0 µM in the […] PRESTO-Tango GPCRome screen; settings: Compound concentration 1.0 uM
[24] = target: G-protein coupled receptor family C group 5 member C (Homo sapiens) (UniProt Q9NQ84); assay: RLU of GPRC5C at 1.0 µM in the […] PRESTO-Tango GPCRome screen; settings: Compound concentration 1.0 uM
[25] = target: Neuropeptide S receptor (Homo sapiens) (UniProt Q6W5P4); assay: RLU of NPS at 1.0 µM in the […] PRESTO-Tango GPCRome screen; settings: Compound concentration 1.0 uM
[26] = target: S-geranylgeranyl-glutathione receptor P2RY8 (Homo sapiens) (UniProt Q86VZ1); assay: RLU of P2RY8 at 1.0 µM in the […] PRESTO-Tango GPCRome screen; settings: Compound concentration 1.0 uM
[27] = target: 5-hydroxytryptamine receptor 1F (Homo sapiens) (UniProt P30939); assay: RLU of HTR1F at 1.0 µM in the […] PRESTO-Tango GPCRome screen; settings: Compound concentration 1.0 uM
5-hydroxytryptamine receptor 1F (Homo sapiens), sequence (P30939 whole entry): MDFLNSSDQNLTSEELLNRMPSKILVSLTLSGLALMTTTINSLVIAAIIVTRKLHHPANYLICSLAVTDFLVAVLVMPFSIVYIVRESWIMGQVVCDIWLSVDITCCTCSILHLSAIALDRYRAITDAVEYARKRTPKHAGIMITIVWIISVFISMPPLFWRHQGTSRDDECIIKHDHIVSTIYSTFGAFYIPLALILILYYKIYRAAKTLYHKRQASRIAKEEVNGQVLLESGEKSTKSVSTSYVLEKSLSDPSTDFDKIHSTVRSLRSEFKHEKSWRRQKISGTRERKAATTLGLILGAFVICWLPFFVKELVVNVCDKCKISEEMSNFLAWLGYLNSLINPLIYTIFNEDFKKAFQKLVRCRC

[28] = target: Trace amine-associated receptor 6 (Homo sapiens) (UniProt Q96RI8); assay: RLU of TAAR6 at 1.0 µM in the […] PRESTO-Tango GPCRome screen; settings: Compound concentration 1.0 uM
[29] = target: Free fatty acid receptor 3 (Homo sapiens) (UniProt O14843); assay: RLU of FFA3 (GPR41) at 1.0 µM in the […] PRESTO-Tango GPCRome screen; settings: Compound concentration 1.0 uM
[30] = target: Parathyroid hormone 2 receptor (Homo sapiens) (UniProt P49190); assay: RLU of PTH2R at 1.0 µM in the […] PRESTO-Tango GPCRome screen; settings: Compound concentration 1.0 uM
Parathyroid hormone 2 receptor (Homo sapiens), sequence (P49190 whole entry): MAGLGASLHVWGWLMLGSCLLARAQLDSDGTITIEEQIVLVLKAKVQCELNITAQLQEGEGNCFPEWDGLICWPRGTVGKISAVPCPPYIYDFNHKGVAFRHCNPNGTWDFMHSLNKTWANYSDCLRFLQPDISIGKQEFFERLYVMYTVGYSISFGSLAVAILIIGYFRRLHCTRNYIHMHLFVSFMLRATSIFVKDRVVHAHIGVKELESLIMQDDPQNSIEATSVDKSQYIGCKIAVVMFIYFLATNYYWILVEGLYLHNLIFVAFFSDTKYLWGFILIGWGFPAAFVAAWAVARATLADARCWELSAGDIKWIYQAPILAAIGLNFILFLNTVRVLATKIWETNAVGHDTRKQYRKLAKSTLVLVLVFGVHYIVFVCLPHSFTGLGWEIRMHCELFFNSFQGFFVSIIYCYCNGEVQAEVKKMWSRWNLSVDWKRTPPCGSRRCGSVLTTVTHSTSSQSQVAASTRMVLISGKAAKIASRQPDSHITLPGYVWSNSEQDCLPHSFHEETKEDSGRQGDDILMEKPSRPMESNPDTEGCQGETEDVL

[31] = target: Neuropeptide FF receptor 2 (Homo sapiens) (UniProt Q9Y5X5); assay: RLU of NPFF2 at 1.0 µM in the […] PRESTO-Tango GPCRome screen; settings: Compound concentration 1.0 uM
[32] = target: Vasopressin V1a receptor (Homo sapiens) (UniProt P37288); assay: RLU of AVPR1A at 1.0 µM in the […] PRESTO-Tango GPCRome screen; settings: Compound concentration 1.0 uM
Vasopressin V1a receptor (Homo sapiens), sequence (P37288 whole entry, looked up): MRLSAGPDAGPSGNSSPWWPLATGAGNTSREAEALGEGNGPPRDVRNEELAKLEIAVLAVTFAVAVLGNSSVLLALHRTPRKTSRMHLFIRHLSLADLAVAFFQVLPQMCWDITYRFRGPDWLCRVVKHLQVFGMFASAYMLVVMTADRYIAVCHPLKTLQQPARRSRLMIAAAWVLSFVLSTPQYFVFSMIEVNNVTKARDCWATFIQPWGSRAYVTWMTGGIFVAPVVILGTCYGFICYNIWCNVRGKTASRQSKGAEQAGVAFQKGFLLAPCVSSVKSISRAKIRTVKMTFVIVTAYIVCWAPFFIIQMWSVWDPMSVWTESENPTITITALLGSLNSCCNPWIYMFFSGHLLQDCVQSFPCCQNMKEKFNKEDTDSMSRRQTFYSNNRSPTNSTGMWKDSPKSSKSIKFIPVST

[33] = target: Glucagon receptor (Homo sapiens) (UniProt P47871); assay: RLU of GCGR at 1.0 µM in the […] PRESTO-Tango GPCRome screen; settings: Compound concentration 1.0 uM
[34] = target: Leukotriene B4 receptor 1 (Homo sapiens, UniProt Q15722); assay: IP-One assay (LTB4R), agonist mode at up to 50 µM; type: functional; set-up: compound concentration < 50 uM
[35] = target: Relaxin-3 receptor 2 (Homo sapiens) (UniProt Q8TDU9); assay: RLU of RXFP4 at 1.0 µM in the […] PRESTO-Tango GPCRome screen; settings: Compound concentration 1.0 uM
Relaxin-3 receptor 2 (Homo sapiens), sequence (Q8TDU9 whole entry): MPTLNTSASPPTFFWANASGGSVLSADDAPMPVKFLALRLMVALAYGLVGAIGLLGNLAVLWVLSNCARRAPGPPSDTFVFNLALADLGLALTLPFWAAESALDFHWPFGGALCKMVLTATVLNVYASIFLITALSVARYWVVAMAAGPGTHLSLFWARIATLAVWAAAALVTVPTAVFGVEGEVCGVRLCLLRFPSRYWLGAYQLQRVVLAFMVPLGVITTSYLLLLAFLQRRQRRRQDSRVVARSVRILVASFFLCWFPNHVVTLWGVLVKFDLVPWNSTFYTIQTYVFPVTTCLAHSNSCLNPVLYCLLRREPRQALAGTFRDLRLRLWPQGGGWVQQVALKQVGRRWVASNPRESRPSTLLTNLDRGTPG

[36] = target: G-protein coupled receptor 6 (Homo sapiens) (UniProt P46095); assay: RLU of GPR6 at 1.0 µM in the […] PRESTO-Tango GPCRome screen; settings: Compound concentration 1.0 uM
G-protein coupled receptor 6 (Homo sapiens), sequence (P46095 whole entry): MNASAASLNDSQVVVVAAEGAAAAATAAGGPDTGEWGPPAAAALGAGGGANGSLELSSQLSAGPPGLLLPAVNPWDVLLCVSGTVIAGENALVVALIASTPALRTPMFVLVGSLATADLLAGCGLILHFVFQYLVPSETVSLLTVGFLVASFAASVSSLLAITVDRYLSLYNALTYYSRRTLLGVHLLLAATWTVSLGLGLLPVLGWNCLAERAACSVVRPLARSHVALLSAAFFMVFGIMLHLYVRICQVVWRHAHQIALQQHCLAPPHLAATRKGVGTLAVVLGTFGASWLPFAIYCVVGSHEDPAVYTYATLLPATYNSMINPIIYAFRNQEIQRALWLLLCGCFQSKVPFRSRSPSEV

2-oxoglutarate receptor 1 (Homo sapiens), sequence (Q96P68 whole entry, looked up): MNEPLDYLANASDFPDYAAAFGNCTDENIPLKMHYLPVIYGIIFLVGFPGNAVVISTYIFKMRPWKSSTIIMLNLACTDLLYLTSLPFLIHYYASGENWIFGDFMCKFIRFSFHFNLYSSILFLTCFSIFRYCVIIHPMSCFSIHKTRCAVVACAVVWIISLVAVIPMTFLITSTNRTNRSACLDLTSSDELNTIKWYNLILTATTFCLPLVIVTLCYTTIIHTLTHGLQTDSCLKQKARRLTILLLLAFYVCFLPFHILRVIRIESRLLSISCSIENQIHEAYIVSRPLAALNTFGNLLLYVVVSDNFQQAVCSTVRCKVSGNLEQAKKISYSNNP

With CCCCC(=O)N1CC2(C1)CN(c1ccccc1-c1nnn[nH]1)C2 as the molecule, how does the RLU [1] read?
The RLU was 156.

And the RLU [2]?
The RLU was -826.

What about the RLU [3] of the same molecule?
Its RLU is -865.

And the RLU [4]?
The RLU was 1.74.

What about the RLU [5] of the same molecule?
Its RLU is 937.

What about the RLU [6] of the same molecule?
Its RLU is -2080.

What about the RLU [7] of the same molecule?
Its RLU is 471.

And the RLU [8]?
Its RLU is 466.

What about the RLU [9] of the same molecule?
The RLU was -102.

And the RLU [10]?
The RLU was 1540.

And the RLU [11]?
The RLU was 2370.

What about the RLU [12] of the same molecule?
Its RLU is 10100.

And the RLU [13]?
Its RLU is 2840.

And the RLU [14]?
The RLU was -36.4.

What about the RLU [15] of the same molecule?
The RLU was -285.

What about the RLU [16] of the same molecule?
The RLU was 10800.

And the RLU [17]?
The RLU was -5260.

And the RLU [18]?
The RLU was 1630.

What about the RLU [19] of the same molecule?
The RLU was -547.

What about the RLU [20] of the same molecule?
Its RLU is -2730.

And the RLU [21]?
The RLU was 1070.

What about the RLU [22] of the same molecule?
The RLU was 1.74.

And the RLU [23]?
The RLU was -408.

And the RLU [24]?
The RLU was 3560.

What about the RLU [25] of the same molecule?
The RLU was 3790.

What about the RLU [26] of the same molecule?
The RLU was 1330.

And the RLU [27]?
Its RLU is -3470.

What about the RLU [28] of the same molecule?
Its RLU is -394.

What about the RLU [29] of the same molecule?
The RLU was 1880.

And the RLU [30]?
Its RLU is -1530.

What about the RLU [31] of the same molecule?
The RLU was -116.

What about the RLU [32] of the same molecule?
The RLU was 5670.

What about the RLU [33] of the same molecule?
Its RLU is 1330.

What about the EC50 [34] of the same molecule?
Its EC50 is > 50 µM (not active).

What about the RLU [35] of the same molecule?
Its RLU is 68.6.

What about the RLU [36] of the same molecule?
Its RLU is 1.07e+06.
